Values quoted from earlier work, collected in patent US20120277156A1, “INHIBITION OF PATHOLOGICAL BONE FORMATION” (priority 2009, published 2012).

Test system: proprioception
Conditions: rat, in vivo

SMILES: CCN(CC)CC(=O)Nc1c(C)cccc1C [lidocaine]
- time by which function was fully recovered: ≤ 120 min
